Source: patent US4539401A, “Pyridobenzoxazine derivatives useful as antibacterial agents” (Daiichi Seiyaku Co., Ltd., priority 1982, dated 1985)
Values after ≈ are worked out from the molar mass of the structure shown. Where a name gives a salt, the structure may show the parent alone.

Key:
[1] = acute toxicity (LD 50) in mice (i.v.); settings: mouse, in vivo, iv
[2] = test system: Gram-positive bacteria; assay: antibacterial activity, statement in words; format: cell-based; settings: from Table 1
Experimental: (§1) *Determined by the standard method of the Japan Society of Chemoterapy:
(§2) (MuellerHinton Broth medium), 10^6 /ml of bacteria were seeded and
(§3) incubated at 37° C. for 18 hours.

[3] = test system: Pr. vulgaris, 08602; assay: MIC, standard method of the Japan Society of Chemotherapy (Mueller-Hinton Broth medium); format: cell-based; settings: Proteus vulgaris, 10^6 /ml of bacteria, 37° C., 18 hours
Experimental: as §1, §2, §3

[4] = test system: Ent. cloacae, 03400; assay: as above; format: cell-based; settings: Enterobacter cloacae, 10^6 /ml of bacteria, 37° C., 18 hours
Experimental: as §1, §2, §3

[5] = test system: K. pneumoniae, type 1; assay: as above; format: cell-based; settings: Klebsiella pneumoniae, TYPE1, 10^6 /ml of bacteria, 37° C., 18 hours
Experimental: as §1, §2, §3

[6] = test system: Str. faecalis, ATCC-19433; assay: as above; format: cell-based; settings: Enterococcus faecalis, ATCC19433, 10^6 /ml of bacteria, 37° C., 18 hours
Experimental: as §1, §2, §3

[7] = test system: Sh. flexneri, 2a, 5503; assay: as above; format: cell-based; settings: Shigella flexneri, 10^6 /ml of bacteria, 37° C., 18 hours
Experimental: as §1, §2, §3

[8] = test system: Ps. aeruginosa, 32121; assay: as above; format: cell-based; settings: Pseudomonas aeruginosa, 10^6 /ml of bacteria, 37° C., 18 hours
Experimental: as §1, §2, §3

[9] = test system: Ps. aeruginosa, 32104; assay: as above; format: cell-based; settings: Pseudomonas aeruginosa, 10^6 /ml of bacteria, 37° C., 18 hours
Experimental: as §1, §2, §3

[10] = test system: Ps. aeruginosa, 32122; assay: as above; format: cell-based; settings: Pseudomonas aeruginosa, 10^6 /ml of bacteria, 37° C., 18 hours
Experimental: as §1, §2, §3

[11] = test system: Str. pyogenes, G-36; assay: as above; format: cell-based; settings: Streptococcus pyogenes, G36, 10^6 /ml of bacteria, 37° C., 18 hours
Experimental: as §1, §2, §3

[12] = test system: E. coli, NIHJ; assay: as above; format: cell-based; settings: Escherichia coli, 10^6 /ml of bacteria, 37° C., 18 hours
Experimental: as §1, §2, §3

[13] = test system: B. subtilis, ATCC-6633; assay: as above; format: cell-based; settings: Bacillus subtilis, ATCC6633, 10^6 /ml of bacteria, 37° C., 18 hours
Experimental: as §1, §2, §3

[14] = test system: S. aureus, 209 P; assay: as above; format: cell-based; settings: Staphylococcus aureus, 10^6 /ml of bacteria, 37° C., 18 hours
Experimental: as §1, §2, §3

[15] = test system: Ps. aeruginosa, 32234; assay: as above; format: cell-based; settings: Pseudomonas aeruginosa, 10^6 /ml of bacteria, 37° C., 18 hours
Experimental: as §1, §2, §3

[16] = test system: Ps. aeruginosa, 32233; assay: as above; format: cell-based; settings: Pseudomonas aeruginosa, 10^6 /ml of bacteria, 37° C., 18 hours
Experimental: as §1, §2, §3

[17] = test system: Ser. marcescens, 10104; assay: as above; format: cell-based; settings: Serratia marcescens, 10^6 /ml of bacteria, 37° C., 18 hours
Experimental: as §1, §2, §3

[18] = test system: S. epidermidis, 56500; assay: as above; format: cell-based; settings: Staphylococcus epidermidis, 10^6 /ml of bacteria, 37° C., 18 hours
Experimental: as §1, §2, §3

[19] = test system: Pr. mirabilis, IFO-3849; assay: as above; format: cell-based; settings: Proteus mirabilis, IFO3849, 10^6 /ml of bacteria, 37° C., 18 hours
Experimental: as §1, §2, §3

[20] = test system: Pseudomonas aeruginosa; assay: antibacterial activity, statement in words; format: cell-based; settings: from Table 1
Experimental: as §1, §2, §3

C=C1COc2c(N3CCC(O)C3)c(F)cc3c(=O)c(C(=O)O)cn1c23 (centres unmarked) [Ia, sodium salt]
LD50 [1]: 333 mg/kg

C=C1COc2c(N3CCC(O)C3)c(F)cc3c(=O)c(C(=O)O)cn1c23 (centres unmarked) [Ia, 9-fluoro-10-(3-hydroxy-1-pyrrolidnyl)-3-methylene-7-oxo-2,3-dihydro-7H-pyrido(1,2,3-de)-1,4-benzoxazine-6-carboxylic acid]
antibacterial activity against Gram-positive bacteria [2]: very strong antibacterial activity | MIC [3]: 0.025 µg/mL (≈ 0.0722 µM) | MIC [4]: 0.05 µg/mL (≈ 0.144 µM) | MIC [5]: 0.19 µg/mL (≈ 0.549 µM) | MIC [6]: 0.39 µg/mL (≈ 1.13 µM) | MIC [7]: 0.025 µg/mL (≈ 0.0722 µM) | MIC [8]: 0.19 µg/mL (≈ 0.549 µM) | MIC [9]: 0.78 µg/mL (≈ 2.25 µM) | MIC [10]: 0.78 µg/mL (≈ 2.25 µM) | MIC [11]: 0.78 µg/mL (≈ 2.25 µM) | MIC [12]: 0.0125 µg/mL (≈ 0.0361 µM) | MIC [13]: ≤ 0.0063 µg/mL | MIC [14]: 0.05 µg/mL (≈ 0.144 µM) | MIC [15]: 0.78 µg/mL (≈ 2.25 µM) | MIC [16]: 0.78 µg/mL (≈ 2.25 µM) | MIC [17]: 0.1 µg/mL (≈ 0.289 µM) | MIC [18]: 0.19 µg/mL (≈ 0.549 µM) | MIC [19]: 0.05 µg/mL (≈ 0.144 µM)

C=C1COc2c(N3CCC(N)C3)c(F)cc3c(=O)c(C(=O)O)cn1c23 (centres unmarked) [Ib, methanesulfonic acid addition salt]
LD50 [1]: > 320 mg/kg

C=C1COc2c(N3CCC(N)C3)c(F)cc3c(=O)c(C(=O)O)cn1c23 (centres unmarked) [Ib, 10-(3-amino-1-pyrrolidinyl)-9-fluoro-3-methylene-7-oxo-2,3-dihydro-7H-pyrido(1,2,3-de)-1,4-benzoxazine-6-carboxylic acid]
antibacterial activity against Pseudomonas aeruginosa [20]: very strong antibacterial activity | MIC [3]: 0.025 µg/mL (≈ 0.0724 µM) | MIC [4]: 0.025 µg/mL (≈ 0.0724 µM) | MIC [5]: 0.05 µg/mL (≈ 0.145 µM) | MIC [6]: 0.78 µg/mL (≈ 2.26 µM) | MIC [7]: 0.0125 µg/mL (≈ 0.0362 µM) | MIC [8]: 0.05 µg/mL (≈ 0.145 µM) | MIC [9]: 0.1 µg/mL (≈ 0.29 µM) | MIC [10]: 0.1 µg/mL (≈ 0.29 µM) | MIC [11]: 0.78 µg/mL (≈ 2.26 µM) | MIC [12]: 0.025 µg/mL (≈ 0.0724 µM) | MIC [13]: 0.05 µg/mL (≈ 0.145 µM) | MIC [14]: 0.1 µg/mL (≈ 0.29 µM) | MIC [15]: 0.1 µg/mL (≈ 0.29 µM) | MIC [16]: 0.19 µg/mL (≈ 0.55 µM) | MIC [17]: 0.05 µg/mL (≈ 0.145 µM) | MIC [18]: 0.39 µg/mL (≈ 1.13 µM) | MIC [19]: 0.025 µg/mL (≈ 0.0724 µM)
